The values below come from patent publication US20140249139A1, “Quinazoline Derivatives” (NOVARTIS AG, priority 2011, published 2014).

One assay addresses T1, PI3K delta (Homo sapiens, UniProt O00329).
T1 construct: for the full-length p110-d subunit are generated and fused by overlapping PCR; His tag (C); made in house; host or cells: baculovirus BV1060; Tn5 (Trichoplusia ni) or TiniPro insect cells
Nature of the assay: Enzymatic PI3K delta isoform inhibition (lipid kinase activity, Kinase-Glo). It counts as biochemical. As to conditions: enzymatic assay. The method, then:
(§1) The components of the assay are added per well as follows:
(§2) IC50 is determined by a four parameter curve fitting routine that comes along with “excel fit”.
(§3) Yet alternatively, for an ATP depletion assay, compounds of the formula I to be tested are dissolved in DMSO and directly distributed into a white 384-well plate at 0.5 μl per well. To start the reaction, 10 μl of 10 nM PI3 kinase and 5 μg/ml 1-alpha-phosphatidylinositol (PI) are added into each well followed by 10 μl of 2 μM ATP. The reaction is performed until approx 50% of the ATP is depleted, and then stopped by the addition of 20 μl of Kinase-Glo solution (Promega Corp., Madison, Wis., USA). The stopped reaction is incubated for 5 minutes and the remaining ATP is then detected via luminescence. IC50 values are then determined.
Background: Kinase-Glo measures the ATP left after a reaction by luminescence.

Another assay concerns the target T2, PI3K alpha (Homo sapiens, UniProt P42336).
T2 construct: for the p110-a subunit (with a deletion of the first 20 amino acids) are generated; His tag (C); made in house; host or cells: baculovirus BV1075; Tn5 (Trichoplusia ni) or TiniPro insect cells
The assay is described as follows: Enzymatic PI3K alpha isoform inhibition (lipid kinase activity, Kinase-Glo). Type of assay: biochemical. As to conditions: enzymatic assay. The method, then: as §1, §2, §3

T2 sequence (P42336 with tags, fused parts or gaps limits assumed, species assumed): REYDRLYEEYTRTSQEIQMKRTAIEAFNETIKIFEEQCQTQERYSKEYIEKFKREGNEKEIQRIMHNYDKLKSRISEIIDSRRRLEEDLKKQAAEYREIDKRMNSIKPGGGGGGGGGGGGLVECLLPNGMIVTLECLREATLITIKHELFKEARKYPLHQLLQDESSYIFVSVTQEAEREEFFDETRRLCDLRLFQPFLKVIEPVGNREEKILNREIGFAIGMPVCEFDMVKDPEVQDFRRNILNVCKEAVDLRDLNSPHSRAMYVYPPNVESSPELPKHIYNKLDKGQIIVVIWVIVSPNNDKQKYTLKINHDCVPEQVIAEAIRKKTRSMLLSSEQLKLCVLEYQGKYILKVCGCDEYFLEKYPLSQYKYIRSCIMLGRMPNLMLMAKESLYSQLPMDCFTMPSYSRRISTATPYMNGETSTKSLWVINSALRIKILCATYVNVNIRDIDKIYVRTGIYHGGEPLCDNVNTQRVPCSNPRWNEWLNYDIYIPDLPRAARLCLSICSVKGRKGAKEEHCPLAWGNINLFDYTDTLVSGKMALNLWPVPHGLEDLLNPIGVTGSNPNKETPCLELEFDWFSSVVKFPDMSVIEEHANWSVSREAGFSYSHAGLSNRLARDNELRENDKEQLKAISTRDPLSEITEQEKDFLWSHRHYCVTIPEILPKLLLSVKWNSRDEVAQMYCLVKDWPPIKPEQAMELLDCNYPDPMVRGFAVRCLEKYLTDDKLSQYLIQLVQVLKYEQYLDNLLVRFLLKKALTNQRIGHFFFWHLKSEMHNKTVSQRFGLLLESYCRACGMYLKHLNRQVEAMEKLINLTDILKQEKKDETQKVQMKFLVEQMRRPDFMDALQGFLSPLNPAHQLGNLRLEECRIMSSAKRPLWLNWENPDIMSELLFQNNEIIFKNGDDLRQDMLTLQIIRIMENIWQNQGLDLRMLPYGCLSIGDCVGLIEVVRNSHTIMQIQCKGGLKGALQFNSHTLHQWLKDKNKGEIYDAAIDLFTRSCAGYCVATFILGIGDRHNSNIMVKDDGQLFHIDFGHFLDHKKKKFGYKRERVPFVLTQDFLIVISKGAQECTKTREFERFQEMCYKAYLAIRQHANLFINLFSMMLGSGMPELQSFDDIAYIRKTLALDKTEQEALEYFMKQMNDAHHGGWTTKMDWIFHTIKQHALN
T1 sequence (O00329 with tags, fused parts or gaps limits assumed, species assumed): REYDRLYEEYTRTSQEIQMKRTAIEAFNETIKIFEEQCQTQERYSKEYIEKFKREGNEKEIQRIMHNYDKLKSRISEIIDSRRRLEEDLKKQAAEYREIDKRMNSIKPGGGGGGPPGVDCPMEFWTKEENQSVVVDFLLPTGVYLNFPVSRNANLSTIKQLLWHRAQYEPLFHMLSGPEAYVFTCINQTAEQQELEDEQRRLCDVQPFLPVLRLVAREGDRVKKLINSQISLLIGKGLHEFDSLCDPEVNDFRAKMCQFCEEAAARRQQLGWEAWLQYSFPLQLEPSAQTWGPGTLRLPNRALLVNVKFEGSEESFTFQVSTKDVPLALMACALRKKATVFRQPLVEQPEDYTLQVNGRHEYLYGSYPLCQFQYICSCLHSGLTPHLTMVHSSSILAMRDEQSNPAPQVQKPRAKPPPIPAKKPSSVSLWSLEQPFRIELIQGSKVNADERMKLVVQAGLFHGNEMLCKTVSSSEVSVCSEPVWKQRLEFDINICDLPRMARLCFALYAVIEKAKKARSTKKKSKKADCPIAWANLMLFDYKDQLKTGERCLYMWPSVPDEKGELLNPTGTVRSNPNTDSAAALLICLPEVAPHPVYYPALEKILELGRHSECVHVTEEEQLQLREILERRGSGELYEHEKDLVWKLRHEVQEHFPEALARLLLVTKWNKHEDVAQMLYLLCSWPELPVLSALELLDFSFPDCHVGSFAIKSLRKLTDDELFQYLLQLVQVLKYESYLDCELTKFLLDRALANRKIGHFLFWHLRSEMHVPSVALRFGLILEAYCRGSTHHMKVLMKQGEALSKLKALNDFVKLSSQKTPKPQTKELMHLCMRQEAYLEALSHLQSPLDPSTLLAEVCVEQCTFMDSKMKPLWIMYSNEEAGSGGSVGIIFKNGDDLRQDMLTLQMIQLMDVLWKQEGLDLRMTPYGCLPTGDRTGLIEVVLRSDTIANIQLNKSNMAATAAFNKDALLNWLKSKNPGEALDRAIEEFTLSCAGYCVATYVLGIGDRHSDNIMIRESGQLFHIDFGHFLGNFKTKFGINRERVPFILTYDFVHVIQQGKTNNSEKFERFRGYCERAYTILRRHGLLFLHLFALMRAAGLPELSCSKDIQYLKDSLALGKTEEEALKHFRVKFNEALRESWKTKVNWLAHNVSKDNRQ

Turning to `CCN(CC)S(=O)(=O)c1cc(-c2ccc3ncnc(-c4cccc(C(=O)N5CCN(C)CC5)c4)c3c2)ccc1OC` [Example 23], the results for the IC50 at PI3K delta and against PI3K alpha were 12.5 nM and 931 nM, respectively.
As to `COc1ccc(-c2ccc3ncnc(-c4cncc(C(=O)N5CCOCC5)c4)c3c2)cc1C(F)(F)F` [Example 82, {5-[6-(4-Methoxy-3-trifluoromethyl-phenyl)-quinazolin-4-yl]-pyridin-3-yl}-morpholin-4-yl-methanone], the IC50 – broadly, the concentration that inhibits the measured activity by half – against PI3K delta amounted to 21.5 nM; against PI3K alpha, 1330 nM.
Take `COc1ccc(-c2ccc3ncnc(-c4cccc(C(=O)N5CCC(O)CC5)c4)c3c2)cn1` [Example 94, (4-Hydroxy-piperidin-1-yl)-{3-[6-(6-methoxy-pyridin-3-yl)-quinazolin-4-yl]-phenyl}-methanone]: the IC50 against PI3K delta came to 6 nM; on PI3K alpha, 174 nM.
`COc1ncc(-c2ccc3ncnc(-c4cncc(C(=O)N5CCN(C(C)=O)CC5)c4)c3c2)cc1C(F)(F)F` [Example 54]: the half-inhibitory concentration (IC50) came out at 3 nM against PI3K delta and 69 nM on PI3K alpha.
For `COc1ccc(-c2ccc3ncnc(-c4cccc(C(=O)N5C[C@@H]6C[C@H]5CN6)c4)c3c2)cc1C(F)(F)F` [Example 39] the same measures were 11.5 nM and 770 nM.
In the same order, the values of `Cc1ccc(-c2ccc3ncnc(-c4cccc(C(=O)N5CCN(C)CC5)c4)c3c2)cc1S(C)(=O)=O` [Example 43] are 11 nM and 374 nM.
For `CC(=O)N1CCN(C(=O)c2cccc(-c3ncnc4ccc(-c5cnc(N)nc5)cc34)c2)CC1` [Example 8] the same measures were 9.5 nM and 268 nM.
For `COc1ncc(-c2ccc3ncnc(-c4cncc(C(=O)N5CCOCC5)c4)c3c2)cc1C(F)(F)F` [Example 68], the IC50 turned out to be 3 nM at PI3K delta and 97 nM on PI3K alpha.
In the same order, the values of `CCN1CCN(C(=O)c2cccc(-c3ncnc4ccc(-c5ccc(OC)nc5)cc34)c2)CC1` [Example 86, (4-Ethyl-piperazin-1-yl)-{3-[6-(6-methoxy-pyridin-3-yl)-quinazolin-4-yl]-phenyl}-methanone] are 15.5 nM and 380 nM.
For `COc1ccc(-c2ccc3ncnc(-c4cncc(C(=O)N5CCOC(C)(C)C5)c4)c3c2)cc1C(F)(F)F` [Example 66] the same measures were 9.5 nM and 763 nM.
As for `COc1ncc(-c2ccc3ncnc(-c4cccc(C(=O)N5CCN(C(C)=O)CC5)c4)c3c2)cc1F` [Example 3], the values for the IC50 at PI3K delta and on PI3K alpha were below 3 nM and 62 nM, respectively.
For `COc1ncc(-c2ccc3ncnc(-c4cncc(C(=O)N5CCN(C)C(C)(C)C5)c4)c3c2)cc1C(F)(F)F` [Example 74] the same measures were 5 nM and 150 nM.
For `COc1ncc(-c2ccc3ncnc(-c4cncc(C(=O)N5CCOC(C)(C)C5)c4)c3c2)cc1F` [Example 63] the same measures were 6 nM and 505 nM.
In the same order, the values of `COc1ccc(-c2ccc3ncnc(-c4cncc(C(=O)N5CCNC(C)(C)C5)c4)c3c2)cn1` [Example 79, (3,3-Dimethyl-piperazin-1-yl)-{5-[6-(6-methoxy-pyridin-3-yl)-quinazolin-4-yl]-pyridin-3-yl}-methanone] are 10 nM and 360 nM.
With `COc1ccc(-c2ccc3ncnc(-c4cncc(C(=O)N5CCNCC(F)(F)C5)c4)c3c2)cc1C(F)(F)F` [Example 83, (6,6-Difluoro-[1,4]diazepan-1-yl)-{5-[6-(4-methoxy-3-trifluoromethyl-phenyl)-quinazolin-4-yl]-pyridin-3-yl}-methanone], the figures for the IC50 at PI3K delta and against PI3K alpha were 21 nM and 904 nM, respectively.
For `COc1ncc(-c2ccc3ncnc(-c4ccnc(C(=O)N5CCN(C(C)=O)CC5)c4)c3c2)cn1` [Example 112, 1-(4-{4-[6-(2-Methoxy-pyrimidin-5-yl)-quinazolin-4-yl]-pyridine-2-carbonyl}-piperazin-1-yl)-ethanone] the same measures were 49 nM and 2320 nM.
In the same order, the values of `COc1ccc(-c2ccc3ncnc(-c4cc(Cl)cc(C(=O)N5CCN(C(C)=O)CC5)c4)c3c2)cn1` [Example 107, 1-(4-{3-Chloro-5-[6-(6-methoxy-pyridin-3-yl)-quinazolin-4-yl]-benzoyl}-piperazin-1-yl)-ethanone] are 5 nM and 716 nM.
For `COc1ncc(-c2ccc3ncnc(-c4cccc(C(=O)N5CCNCC5)c4)c3c2)cc1C#N` [Example 35] the same measures were 7 nM and 262 nM.
In the case of `CN1CCN(C(=O)c2cncc(-c3ncnc4ccc(-c5cnc(N)nc5)cc34)c2)CC1` [Example 60], the IC50 against PI3K delta came to 19.5 nM; on PI3K alpha it was 657 nM.
In the same order, the values of `CCOc1ccc(-c2ccc3ncnc(-c4cccc(C(=O)N5CCN(C)CC5)c4)c3c2)cn1` [Example 16] are 12.5 nM and 695 nM.
In the same order, the values of `CC(=O)N1CCN(C(=O)c2cncc(-c3ncnc4ccc(-c5cncc(C(F)(F)F)c5)cc34)c2)CC1` [Example 50, 1-(4-{5-[6-(5-Trifluoromethyl-pyridin-3-yl)-quinazolin-4-yl]-pyridine-3-carbonyl}-piperazin-1-yl)-ethanone] are 10.5 nM and 319 nM.
For `COc1ncc(-c2ccc3ncnc(-c4cccc(C(=O)N5CCOC(C)(C)C5)c4)c3c2)cn1` [Example 33] the same measures were 12 nM and 639 nM.
On to `COc1ncc(-c2ccc3ncnc(-c4cccc(C(=O)N5CCN[C@H](C)C5)c4)c3c2)cc1C#N` [Example 34, 2-Methoxy-5-{4-[3-((R)-3-methyl-piperazine-1-carbonyl)-phenyl]-quinazolin-6-yl}-nicotinonitrile], for which the IC50 at PI3K delta was 22.5 nM; at PI3K alpha, 488 nM.
For `COc1ccc(-c2ccc3ncnc(-c4cccc(C(=O)N5CC6CC5CN6)c4)c3c2)cn1` (stereo not drawn) [Example 38, (2,5-Diaza-bicyclo[2.2.1]hept-2-yl)-{3-[6-(6-methoxy-pyridin-3-yl)-quinazolin-4-yl]-phenyl}-methanone] the same measures were 7 nM and 372 nM.
For `COc1ccc(-c2ccc3ncnc(-c4ccc(C)c(C(=O)N5CCN(C(C)=O)CC5)c4)c3c2)cn1` [Example 100, 1-(4-{5-[6-(6-Methoxy-pyridin-3-yl)-quinazolin-4-yl]-2-methyl-benzoyl}-piperazin-1-yl)-ethanone], the IC50 is 5 nM against PI3K delta and 188 nM on PI3K alpha.
Regarding `COc1ccc(-c2ccc3ncnc(-c4cncc(C(=O)N5CCOC(C)(C)C5)c4)c3c2)cn1` [Example 67], the results for the concentration for half-maximal inhibition (IC50) at PI3K delta and against PI3K alpha were 7 nM and 306 nM, respectively.
In the same order, the values of `CN1CCN(C(=O)c2cccc(-c3ncnc4ccc(-c5ccc(S(N)(=O)=O)c(C(F)(F)F)c5)cc34)c2)CC1` [Example 46] are 23.5 nM and 5300 nM.
For `COc1ccc(-c2ccc3ncnc(-c4cncc(C(=O)N5CCN(C(C)=O)CC5)c4)c3c2)cn1` [Example 52] the same measures were 7.5 nM and 189 nM.
For `COc1ncc(-c2ccc3ncnc(-c4cccc(C(=O)N5CCN(C(C)=O)C(C)(C)C5)c4)c3c2)cc1C#N` [Example 37] the same measures were 4 nM and 426 nM.
As to `COc1ncc(-c2ccc3ncnc(-c4cccc(C(=O)N5CCOC(C)(C)C5)c4)c3c2)cc1C#N` [Example 31], the IC50 at PI3K delta came out at 6 nM; at PI3K alpha, 631 nM.
